Literature values in patent US8030300B2, “Ligands for nicotinic acetylcholine receptors, and methods of making and using them” (priority 2003, dated 2011).

Details: background b17; approximate; cited from earlier work

Compound: Clc1ccc(C2CC3CCC2N3)cn1 (racemic) [Epibatidine, 2-exo-(2-Chloro-5-pyridyl)-7-azabicyclo[2.2.1]heptane]
- analgesic potency, times that of morphine: ~500 times
